Experimental data from the NIST ThermoML archive (doi:10.1016/j.tca.2015.04.021).
± gives the expanded uncertainty stated by the source.

Assay: molar enthalpy of vaporization or sublimation
Settings: Liquid, TGA

Question: For `Cn1cc[n+](CCC(F)(F)C(F)(F)C(F)(F)C(F)(F)C(F)(F)C(F)(F)F)c1.O=S(=O)([N-]S(=O)(=O)C(F)(F)F)C(F)(F)F`, which molar enthalpy (532.3 K) is on record?
Answer: Its molar enthalpy is 30.1 ± 0.669 kcal/mol.

Question: For `Cn1cc[n+](CCC(F)(F)C(F)(F)F)c1.O=S(=O)([N-]S(=O)(=O)C(F)(F)F)C(F)(F)F`, which molar enthalpy (527.7 K) is on record?
Answer: Its molar enthalpy is 27.2 ± 0.621 kcal/mol.

Question: Which molar enthalpy (531.8 K) does the source give for `Cn1cc[n+](CCC(F)(F)C(F)(F)C(F)(F)C(F)(F)C(F)(F)C(F)(F)C(F)(F)C(F)(F)F)c1.O=S(=O)([N-]S(=O)(=O)C(F)(F)F)C(F)(F)F` here?
Answer: The molar enthalpy was 30.5 ± 0.669 kcal/mol.
